From patent US8101754B2, “Triazole compounds suitable for treating disorders that respond to modulation of the dopamine D3 receptor” (Abbott GmbH & Co. KG, priority 2004, dated 2012)
Where two headings read alike, the source gives them in different places.

Assays:
[1] = molecular target: T1, human dopamine D2L receptors (long isoform) (Homo sapiens, UniProt P14416); experiment: Dopamine D2L receptor binding ([125I] iodospiperone), basis of selectivity Ki(D2)/Ki(D3); conditions: for Selectivity [Ki(D2)/Ki(D3)]: D2L vs D3; for D2/D3: Table 7, compounds of formula IIa
T1 construct: expressed in transfected cells; membranes)
Protocol: The substance to be tested was either dissolved in methanol/Chremophor® (BASF-AG) or in dimethyl sulfoxide and then diluted with water to the desired concentration. […] Each assay mixture was run in triplicate. The incubation buffer contained 50 mM tris, 120 mM NaCl, 5 mM KCl, 2 mM CaCl2, 2 mM MgCl2 and 0.1% bovine serum albumin. The buffer was adjusted to pH 7.4 with HCl. Measurement and Analysis: After having been incubated at 25° C. for 60 minutes, the assay mixtures were filtered through a Wathman GF/B glass fiber filter under vacuum using a cell collecting device. The filters were transferred to scintillation viols using a filter transfer system. After 4 ml of Ultima Gold® (Packard) have been added, the samples were shaken for one hour and the radioactivity was then counted in a Beta-Counter (Packard, Tricarb 2000 or 2200CA). The cpm values were converted into dpm using a standard quench series and the program belonging to the instrument. The inhibition curves were analyzed by means of iterative nonlinear regression analysis using the Statistical Analysis System (SAS) which is similar to the “LIGAND” program described by Munson and Rodbard.

[2] = molecular target: T2, human dopamine D3 receptors (Homo sapiens, UniProt P35462); experiment: Dopamine D3 receptor binding ([125I]-iodosulpride displacement)
T2 construct: expressed in transfected cells; membranes)
Protocol: The substance to be tested was either dissolved in methanol/Chremophor® (BASF-AG) or in dimethyl sulfoxide and then diluted with water to the desired concentration.
Each assay mixture was run in triplicate.
The incubation buffer contained 50 mM tris, 120 mM NaCl, 5 mM KCl, 2 mM CaCl2, 2 mM MgCl2 and 0.1% bovine serum albumin, 10 μM quinolone and 0.1% ascorbic acid (prepared fresh daily). The buffer was adjusted to pH 7.4 with HCl.
Measurement and Analysis:
After having been incubated at 25° C. for 60 minutes, the assay mixtures were filtered through a Wathman GF/B glass fiber filter under vacuum using a cell collecting device. The filters were transferred to scintillation viols using a filter transfer system. After 4 ml of Ultima Gold® (Packard) have been added, the samples were shaken for one hour and the radioactivity was then counted in a Beta-Counter (Packard, Tricarb 2000 or 2200CA). The cpm values were converted into dpm using a standard quench series and the program belonging to the instrument.
The inhibition curves were analyzed by means of iterative nonlinear regression analysis using the Statistical Analysis System (SAS) which is similar to the “LIGAND” program described by Munson and Rodbard.

[3] = Concentration of compounds in plasma and brain following oral dosing; type: in vivo, Sprague-Dawley rats; conditions: male rats, 10 mg/kg orally by gavage
Protocol: 2. Determination of the Concentration of Compounds in Plasma and Brain Following Dosing of Compounds in Animals
Male Sprague-Dawley rats were used in this study (2 to 4 per experiment). The animals were fasted overnight prior to dosing and throughout the duration of the study but were permitted water ad libitum.
Each rat received a 10 mg/kg (5 mL/kg) dose orally by gavage. At 0.5, 3 and 8 hours after drug administration, three animals were put under deep anesthesia using isoflurane and euthanized by bleeding (cardiac puncture) under deep isoflurane anesthesia. EDTA blood samples and brain tissue will be collected from each rat. Upon collection, the samples were promptly placed in an ice bath, and within 2 hours after sample collection, the blood was centrifuged at about 4° C. The resulting brain and plasma samples were placed in clean glass tubes and stored in a freezer until analysis.
The plasma samples were assayed for parent compound using appropriate liquid chromatography—mass spectrometry procedures. The results for compounds I are given in tables 2, and illustrate the high brain concentrations attainable with the compounds of the invention.

[4] = Table 5, membranes of HEK-293 cells, read-out: Ki D3
[5] = Table 6, membranes of HEK-293 cells, read-out: ki D3
[6] = Table 7, compounds of formula IIa, read-out: D3
[7] = compounds II, read-out: Ki D3 values

T1 sequence (P14416 whole entry, canonical isoform): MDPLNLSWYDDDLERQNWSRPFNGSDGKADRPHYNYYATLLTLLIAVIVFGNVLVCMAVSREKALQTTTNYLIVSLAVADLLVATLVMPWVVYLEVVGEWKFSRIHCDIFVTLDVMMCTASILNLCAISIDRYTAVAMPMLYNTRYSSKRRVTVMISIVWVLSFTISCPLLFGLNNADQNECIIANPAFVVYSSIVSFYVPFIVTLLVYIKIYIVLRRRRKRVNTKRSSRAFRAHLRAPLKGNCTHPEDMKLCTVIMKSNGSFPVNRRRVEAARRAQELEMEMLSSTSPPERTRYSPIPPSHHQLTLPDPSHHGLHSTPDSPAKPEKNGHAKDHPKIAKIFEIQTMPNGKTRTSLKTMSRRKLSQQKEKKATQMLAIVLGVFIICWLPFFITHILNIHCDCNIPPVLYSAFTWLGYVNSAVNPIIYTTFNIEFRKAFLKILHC
T2 sequence (P35462 whole entry): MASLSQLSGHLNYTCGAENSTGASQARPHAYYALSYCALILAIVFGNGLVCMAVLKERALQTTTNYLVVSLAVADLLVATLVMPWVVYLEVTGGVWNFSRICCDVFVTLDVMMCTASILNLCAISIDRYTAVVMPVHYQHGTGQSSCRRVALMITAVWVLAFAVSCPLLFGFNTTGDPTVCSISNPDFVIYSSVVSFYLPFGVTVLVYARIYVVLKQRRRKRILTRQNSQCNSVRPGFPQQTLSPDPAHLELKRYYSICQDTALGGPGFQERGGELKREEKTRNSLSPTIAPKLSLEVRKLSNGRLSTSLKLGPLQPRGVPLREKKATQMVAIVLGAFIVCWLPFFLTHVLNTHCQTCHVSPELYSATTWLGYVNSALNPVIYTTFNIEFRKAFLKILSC

Row | Selectivity [Ki(D2)/Ki(D3)] ([1]; Table 6) | Ki [2, 5] [nM] | D2/D3 [1] | Ki [2, 6] [nM] | Ki [2, 7] [nM] | SMILES | also measured
1 | – | – | – | – | – | Cl.Cn1cnnc1SCCCN1CCN(c2cc(C(F)(F)F)nc(C(C)(C)C)n2)CC1 | melting point: 92 to 95 °C
2 | – | – | – | – | – | Cc1nnc([S+]([O-])CCCN2CCN(c3cc(C(C)(C)C)nc(C(C)(C)C)n3)CC2)n1C (racemic) [Example 1, 2,4-Di-tert-butyl-6-{4-[3-(4,5-dimethyl-4H-[1,2,4]triazole-3-sulfinyl)-propyl]-piperazin-1-yl}-pyrimidine] | Selectivity [Ki(D2)/Ki(D3)] ([1]; Table 5): 26; Ki [2, 4]: 19.5 nM; Brain level ([3]; Table 5): 1670 ng/g
3 | – | – | – | – | – | Cc1nnc(S(=O)(=O)CCCN2CCN(c3cc(C(C)(C)C)nc(C(C)(C)C)n3)CC2)n1C [Example 4, 2,4-Di-tert-butyl-6-{4-[3-(4,5-dimethyl-4H-[1,2,4]triazole-3-sulfonyl)-propyl]-piperazin-1-yl}-pyrimidine] | Selectivity [Ki(D2)/Ki(D3)] ([1]; Table 5): 34; Ki [2, 4]: 6.1 nM; Brain level ([3]; Table 5): 1920 ng/g
4 | 20 | 7.5 | – | – | – | Cn1cnnc1S(=O)(=O)CCCN1CCN(c2cc(C3CCCC3)nc(C(C)(C)C)n2)CC1 [Example 24, 2-tert-Butyl-4-{4-[3-(4-methyl-1H-[1,2,4]triazole-3-sulfonyl)-propyl]-piperazin-1-yl}-6-cyclopentyl-pyrimidine] | –
5 | 30 | 23.3 | – | – | – | Cn1cnnc1[S+]([O-])CCCN1CCN(c2cc(C3CCCC3)nc(C(C)(C)C)n2)CC1 (stereo not shown) [Example 25, 2-tert-Butyl-4-{4-[3-(4-methyl-1H-[1,2,4]triazole-3-sulfinyl)-propyl]-piperazin-1-yl}-6-cyclopentyl-pyrimidine] | –
6 | 33 | 44.6 | – | – | – | CCCc1cc(N2CCN(CCCS(=O)(=O)c3nncn3C)CC2)nc(C(C)(C)C)n1 [Example 26, 2-tert-Butyl-4-{4-[3-(4-methyl-1H-[1,2,4]triazole-3-sulfonyl)-propyl]-piperazin-1-yl}-6-propyl-pyrimidine] | –
7 | 24 | 9.7 | – | – | – | Cn1cnc(S(=O)(=O)CCCN2CCN(c3cc(C(C)(C)C)nc(C(C)(C)C)n3)CC2)n1 [Example 27, 2,6-di-tert-Butyl-4-{4-[3-(1-methyl-1H-[1,2,4]triazole-3-sulfonyl)-propyl]-piperazin-1-yl}-pyrimidine] | –
8 | 158 | 9.9 | – | – | – | CCCc1cc(N2CCN(CCC[S+]([O-])c3ncn(C)n3)CC2)nc(C(C)(C)C)n1.Cl (stereo not shown) [Example 28, 2-tert-Butyl-4-{4-[3-(1-methyl-1H-[1,2,4]triazole-3-sulfinyl)-propyl]-piperazin-1-yl}-6-propyl-pyrimidine hydrochloride] | –
9 | 59 | 20.3 | – | – | – | CCCc1cc(N2CCN(CCCS(=O)(=O)c3ncn(C)n3)CC2)nc(C(C)(C)C)n1 [Example 29, 2-tert-Butyl-4-{4-[3-(1-methyl-1H-[1,2,4]triazole-3-sulfonyl)-propyl]-piperazin-1-yl}-6-propyl-pyrimidine] | –
10 | 51 | 3.5 | – | – | – | Cl.Cn1cnc([S+]([O-])CCCN2CCN(c3cc(C(C)(C)C)nc(C(C)(C)C)n3)CC2)n1 (stereo not shown) [Example 30, 2,6-di-tert-Butyl-4-{4-[3-(1-methyl-1H-[1,2,4]triazole-3-sulfinyl)-propyl]-piperazin-1-yl}-pyrimidine hydrochloride] | –
11 | 37 | 22.6 | – | – | – | CC(C)(C)c1nc(N2CCN(CCCS(=O)(=O)c3nc[nH]n3)CC2)cc(C2(C)CC2)n1 [Example 31, 2-tert-butyl-6-{4-[3-(1H-[1,2,4]triazole-3-sulfonyl)-propyl]-piperazin-1-yl}-6-(1-methyl)cyclopropyl-pyrimidine] | –
12 | – | – | 96 | 1.5 | < 5 | COCc1nnc(SCCCN2CCN(c3cc(C(F)F)nc(C(C)(C)C)n3)CC2)n1C.Cl [c.4, 2-tert-Butyl-4-{4-[3-(4-methyl-5-methoxymethyl-4H-[1,2,4]triazol-3-ylsulfanyl)-propyl]-piperazin-1-yl}-6-difluoromethyl-pyrimidine hydrochloride] | Brain level ([3]; Table 7): 290 ng/g
13 | – | – | 115 | 1.2 | < 5 | Cl.Cn1c(SCCCN2CCN(c3cc(C(F)F)nc(C(C)(C)C)n3)CC2)nnc1C(C)(C)C [c.7, 2-tert-Butyl-4-{4-[3-(4-methyl-5-tert-butyl-4H-[1,2,4]triazol-3-ylsulfanyl)-propyl]-piperazin-1-yl}-6-difluoromethyl-pyrimidine hydrochloride] | –
14 | – | – | 470 | 1.7 | – | CCCc1cc(N2CCN(CCCSc3nnc(CC)n3C)CC2)nc(C(C)(C)C)n1.Cl [c.11, 2-tert-Butyl-4-{4-[3-(4-methyl-5-ethyl-4H-[1,2,4]triazol-3-ylsulfanyl)-propyl]-piperazin-1-yl}-6-propyl-pyrimidine hydrochloride] | Brain level ([3]; Table 7): 840 ng/g
15 | – | – | 143 | 2.4 | < 5 | CCCc1cc(N2CCN(CCCSc3nnc(COC)n3C)CC2)nc(C(C)(C)C)n1.Cl [c.12, 2-tert-Butyl-4-{4-[3-(4-methyl-5-methoxymethyl-4H-[1,2,4]triazol-3-ylsulfanyl)-propyl]-piperazin-1-yl}-6-propyl-pyrimidine hydrochloride] | Brain level ([3]; Table 7): 780 ng/g
16 | – | – | 157 | 1.3 | – | Cl.Cn1c(SCCCN2CCN(c3cc(C(F)(F)F)nc(C(C)(C)C)n3)CC2)nnc1C(F)(F)F [c.13, 2-tert-Butyl-4-{4-[3-(4-methyl-5-trifluoromethyl-4H-[1,2,4]triazol-3-ylsulfanyl)-propyl]-piperazin-1-yl}-6-trifluoromethyl-pyrimidine hydrochloride] | –
17 | – | – | 135 | 1.5 | – | Cc1nnc(SCCCN2CCN(c3cc(C(F)(F)F)nc(C(C)(C)C)n3)CC2)n1C.Cl [c.14, 2-tert-Butyl-4-{4-[3-(4-methyl-5-methyl-4H-[1,2,4]triazol-3-ylsulfanyl)-propyl]-piperazin-1-yl}-6-trifluoromethyl-pyrimidine hydrochloride] | –
18 | – | – | 364 | 2 | < 5 | CCc1nnc(SCCCN2CCN(c3cc(C(F)(F)F)nc(C(C)(C)C)n3)CC2)n1C.Cl [c.15, 2-tert-Butyl-4-{4-[3-(4-methyl-5-ethyl-4H-[1,2,4]triazol-3-ylsulfanyl)-propyl]-piperazin-1-yl}-6-trifluoromethyl-pyrimidine hydrochloride] | Brain level ([3]; Table 7): 1410 ng/g
19 | – | – | 237 | 0.65 | < 5 | COCc1nnc(SCCCN2CCN(c3cc(C(F)(F)F)nc(C(C)(C)C)n3)CC2)n1C.Cl [c.16, 2-tert-Butyl-4-{4-[3-(4-methyl-5-methoxymethyl-4H-[1,2,4]triazol-3-ylsulfanyl)-propyl]-piperazin-1-yl}-6-trifluoromethyl-pyrimidine hydrochloride] | –
20 | – | – | 293 | 0.9 | < 5 | Cl.Cn1c(SCCCN2CCN(c3cc(C(F)(F)F)nc(C(C)(C)C)n3)CC2)nnc1C1CC1 [c.17, 2-tert-Butyl-4-{4-[3-(4-methyl-5-cyclopropyl-4H-[1,2,4]triazol-3-ylsulfanyl)-propyl]-piperazin-1-yl}-6-trifluoromethyl-pyrimidine hydrochloride] | melting point: 182 to 184 °C
21 | – | – | 134 | 2.9 | < 5 | CC(=O)O.Cn1c(SCCCN2CCN(c3cc(C(F)(F)F)nc(C(C)(C)C)n3)CC2)nnc1C1CCC1 [c.18, 2-tert-Butyl-4-{4-[3-(4-methyl-5-cyclobutyl-4H-[1,2,4]triazol-3-ylsulfanyl)-propyl]-piperazin-1-yl}-6-trifluoromethyl-pyrimidine acetate] | –
